Data on nine compounds can be found in PMC9405596, “Evaluation of the Anti-Leishmania mexicana and -Trypanosoma brucei Activity and Mode of Action of 4,4′-(Arylmethylene)bis(3-methyl-1-phenyl-1H-pyrazol-5-ol)” (Biomedicines, 2022).

By IC50 is commonly meant the concentration at which inhibition is half-maximal. The term melting point denotes the temperature of the solid-liquid transition. As a reminder, the CC50 is the concentration at which the toxic effect on the cells reaches its halfway point. One may read the inhibition as the drop in the measured response relative to a control, in per cent.

Like-named read-outs stand apart in the source and are kept apart here.

Data set [1] concerns L. mexicana promastigotes. Nature of the data set: MTT viability assay against L. mexicana promastigotes. In kind it is cell-based, Leishmania mexicana. The note with it: for IC50: 48 h; for L. mexicana Promastigote SI vs. Hepatocytes: CC50 HepG2 hepatocytes/IC50 L. mexicana; for L. mexicana Promastigote SI vs. Macrophage: CC50 RAW macrophages/IC50 L. mexicana. How it is done: The leishmanicidal activity against promastigotes from L. mexicana was evaluated by measuring parasites’ mitochondrial activity using the MTT (Thiazolyl Blue Tetrazolium Bromide) colorimetric assay as described previously. […] The medium was renewed every third day and subcultures were prepared when parasite density reached 1 × 10^7 parasites/mL. A Neubauer chamber was used to determine parasite density.
(In general: Tetrazolium dyes change colour on reduction, which living cells bring about.)

Data set [2] has as its system bloodstream form of T. b. brucei (strain 427). Nature of the data set: Bioluminescence viability assay against bloodstream T. b. brucei expressing luciferase. The note with it: for anti-T. brucei activity in preliminary screening, in words: 10 µM; for activity at 10 µM: read-out: T. brucei bloodstream % Growth (10 µM), 10 µM, 24 h; for T. brucei SI vs. Hepatocytes: CC50 HepG2 hepatocytes/IC50 T. brucei; for T. brucei bloodstream SI vs. Macrophages: CC50 RAW macrophages/IC50 T. brucei.

A short description of data set [3]: MTT cytotoxicity assay, murine macrophages. Format: cell-based. The note with it: mouse, RAW 264.7 macrophage cells, RAW 264.7, 48 h. How it is done:
(§1) Murine macrophages (cell line RAW 264.7, ATCC® TIB-71™) were grown in Dulbecco’s Modified Eagle Medium (DMEM) (Gibco, Invitrogen, Waltham, MA, USA) supplemented with 10% fetal bovine serum (FBS) (Eurobio) and 100 IU/mL penicillin + 100 µg/mL streptomycin (Gibco), at 37 °C, in an atmosphere containing 5% CO2. Human hepatocyte cell line HepG2 (ATCC® HB-8065™) was grown in MEM (Gibco, Invitrogen) supplemented with 10% FBS (Gibco, Invitrogen), 1% NEAA (Gibco, Invitrogen), and 1% L-glutamine (Gibco, Invitrogen). The medium was renewed twice a week. For both cell lines, the viability was determined using the MTT assay as described before for leishmanicidal activity assessment, with some variations. Here, 5 × 10^4 cells/well in a final volume of 100 µL were seeded into a 96-well plate, in triplicate for RAW macrophages and in duplicate for HepG2. Saponin (2.4 mg/mL) and untreated cells were used as positive control and negative control, respectively. Compounds were dissolved in DMSO to obtain different serial concentrations (1.56 to 800 µM) for RAW macrophages and 100–0.001 µM for HepG2. The final concentration of DMSO in each well was 0.5%. After exposure to compounds for 48 h and 72 h for RAW and HepG2 cells, respectively, 10 µL/well of MTT (5 mg/mL in PBS) was added, incubated at 37 °C for 2 h in darkness, and cells were pelleted via centrifugation at 4400 rpm for 10 min. The medium was removed, and 100 µL/well of DMSO was added to dissolve formazan. The absorbance at 570 and 630 nm was recorded following the same procedure as with parasites.

Data set [4] is described as follows: MTT cytotoxicity assay, HepG2. In kind it is cell-based. The note with it: human, HepG2 cells, HepG2, 72 h, read-out: CC50 HepG2 Hepatocytes. How it is done: as §1
[5] abbreviates: Leishmania mexicana, read-out: L. mexicana Promastigote IC50, promastigotes, 48 h, MTT.
[6] abbreviates: Trypanosoma brucei, 24 h, read-out: T. brucei bloodstream IC50, 24 h, bioluminescence.
Setting [7] is: read-out: L. mexicana Promastigote IC50, promastigotes, MTT.

Consider `COc1ccc(C(c2c(C)nn(-c3ccccc3)c2O)c2c(C)nn(-c3ccccc3)c2O)cc1` [Compound 2e], for which the melting point is 176 to 177 °C. Also, the IC50 in data set [1] (setting [5]) is > 50 µM. The “anti-T. brucei activity in preliminary screening, in words” value (“anti-T. brucei activity” for short) in data set [2] is “inactive”. In data set [2] (Trypanosoma brucei, 24 h), the activity at 10 µM was > 100%.
Take `CC1(C)[C@@H](O[C@@H]2OC[C@H](O[C@@H]3OC[C@@H](O)[C@H](O)[C@H]3O)[C@H](O[C@H]3O[C@H](CO)[C@@H](O)[C@H](O)[C@H]3O)[C@H]2O[C@@H]2O[C@H](CO)[C@@H](O)[C@H](O)[C@H]2O[C@H]2O[C@H](CO)[C@@H](O)[C@H](O)[C@H]2O)CC[C@]2(C)[C@H]3CCC45OCC6(CC[C@@](C)(C=O)C[C@@H]64)[C@H](O)C[C@@]5(C)[C@]3(C)CC[C@@H]12` (some centres unmarked) [Saponin, reference compound]: the CC50 at 48 h in data set [3] (positive control) is 160 ± 30 µg/mL.
In turn, `Cc1nn(-c2ccccc2)c(O)c1C(c1ccc(N(C)C)cc1)c1c(C)nn(-c2ccccc2)c1O` [Compound 2g] returned a melting point of 188.8 to 189.6 °C. Besides, the concentration for half-maximal inhibition (IC50) in data set [1] (setting [5]) is > 50 µM. In addition, the “anti-T. brucei activity” value in data set [2] was “inactive”. For the same compound, the activity at 10 µM in data set [2] (Trypanosoma brucei, 24 h) was > 100%.
For the compound `Cc1nn(-c2ccccc2)c(O)c1C(c1ccc(O)cc1)c1c(C)nn(-c2ccccc2)c1O` [Compound 2o], the melting point lay in the range of 217.2 to 218.9 °C. Besides, in data set [1] (setting [5]), the IC50 was > 50 µM. The “anti-T. brucei activity” value in data set [2] is “inactive”. The activity at 10 µM in data set [2] (Trypanosoma brucei, 24 h) was > 100%. The inhibition at 10 µM in data set [2] (Trypanosoma brucei, 24 h, read-out: T. brucei growth inhibition at 10 µM) amounted to 0%.
As to `COC(=O)c1ccc(C(c2c(C)nn(-c3ccccc3)c2O)c2c(C)nn(-c3ccccc3)c2O)cc1` [Compound 2q], in data set [1], the “L. mexicana Promastigote SI vs. Hepatocytes” value turned out to be 2.2 and the “L. mexicana Promastigote SI vs. Macrophage” value worked out at 8.5. Moreover, in data set [1] (setting [5]), the IC50 came out at 13 ± 3 µM. The same compound had a CC50 at 48 h in data set [3] of 111 ± 2 µM. The 50% cytotoxic concentration (CC50) at 72 h in data set [4] is 29 ± 4 µM. In addition, in data set [2], the “T. brucei SI vs. Hepatocytes” value was found to be 4.9 and the “T. brucei bloodstream SI vs. Macrophages” value turned out to be 19. In data set [2] (Trypanosoma brucei, 24 h), the activity at 10 µM is ≤ 50%. In addition, in data set [2] (setting [6]), the half-maximal inhibitory concentration (IC50) is 6 µM. The IC50 in data set [2] (read-out: T. brucei bloodstream IC50, 24 h, bioluminescence) is 5.9 ± 0.6 µM.
For `COc1ccccc1C(c1c(C)nn(-c2ccccc2)c1O)c1c(C)nn(-c2ccccc2)c1O` [Compound 2f], in data set [1], the “L. mexicana Promastigote SI vs. Hepatocytes” value was >4.5 and the “L. mexicana Promastigote SI vs. Macrophage” value worked out at 4.2. Besides, the IC50 in data set [1] (setting [5]) was found to be 22 ± 9 µM. The 50% cytotoxic concentration (CC50) at 48 h in data set [3] came out at 93 ± 7 µM. The 50% cytotoxic concentration (CC50) at 72 h in data set [4] was > 100 µM. In addition, in data set [2], the “T. brucei SI vs. Hepatocytes” value was >12.5 and the “T. brucei bloodstream SI vs. Macrophages” value came to 11.6. The activity at 10 µM in data set [2] (Trypanosoma brucei, 24 h) is ≤ 50%. In addition, the IC50 in data set [2] (setting [6]) is 8 ± 0.27 µM. Further, the “SI against T. brucei, range over both mammalian cell lines” value in data set [2] (murine macrophages and HepG2 hepatocytes) is reported as 11.6–18.
Consider `Cc1nn(-c2ccccc2)c(O)c1C(c1ccc([N+](=O)[O-])cc1)c1c(C)nn(-c2ccccc2)c1O` [Compound 2k], for which the “L. mexicana Promastigote SI vs. Hepatocytes” value in data set [1] came out at 1.7. Also, the “L. mexicana Promastigote SI vs. Macrophage” value in data set [1] was 13. The IC50 in data set [1] (setting [5]) was ≤ 10 µM; in data set [1] (setting [7]) it was 9 ± 1 µM. The same compound returned a half-maximal cytotoxic concentration (CC50) at 48 h in data set [3] of 117 ± 15 µM. The CC50 at 72 h in data set [4] stood at 15 ± 6 µM. Moreover, in data set [2] (Trypanosoma brucei, 24 h), the activity at 10 µM was 88 ± 4%.
Take `C[C@@H]1[C@H](O)[C@@H](C)/C=C/C=C/C=C/C=C/C=C/C=C/C=C/[C@H](O[C@@H]2O[C@H](C)[C@@H](O)[C@H](N)[C@@H]2O)C[C@@H]2O[C@](O)(C[C@@H](O)C[C@@H](O)[C@H](O)CC[C@@H](O)C[C@@H](O)CC(=O)O[C@H]1C)C[C@H](O)[C@H]2C(=O)O` [Amphotericin B, reference compound]: in data set [1] (setting [5]), the IC50 is 0.17 ± 0.05 µM. Also, in data set [3], the half-maximal cytotoxic concentration (CC50) at 48 h was > 5 µM.
For `Cc1nn(-c2ccccc2)c(O)c1C(c1cccc([N+](=O)[O-])c1)c1c(C)nn(-c2ccccc2)c1O` [Compound 2d], the “L. mexicana Promastigote SI vs. Hepatocytes” value in data set [1] is listed as >10. In addition, in data set [1], the “L. mexicana Promastigote SI vs. Macrophage” value is recorded as 7.5. Further, the 50% inhibitory concentration (IC50) is ≤ 10 µM in data set [1] (setting [5]) and 10 ± 3 µM in data set [1] (setting [7]). In addition, in data set [3], the CC50 at 48 h was 75 ± 15 µM. In addition, the 50% cytotoxic concentration (CC50) at 72 h in data set [4] was > 100 µM. Besides, in data set [2] (Trypanosoma brucei, 24 h), the activity at 10 µM was 73 ± 4%.
